Experimental data published in patent US5219740A, “Retroviral gene transfer into diploid fibroblasts for gene therapy” (Fred Hutchinson Cancer Research Center, priority 1987, dated 1993).

Columns and labels:
NIH 3T3 = experiment: Drug concentration needed for complete cell killing; type: cell-based, mouse; conditions: for Drug Concentrations Needed For Complete Cell Killing: Mouse NIH 3T3, scored after 10 days
Protocol: (§1) Three drugs were tested for their ability to kill human diploid fibroblasts (HDF): the neomycin analogue G418, Hygromycin-B (Hygro), and Methotrexate (Mtx). Four HDF lines were isolated from skin biopsies of normal human donors: HDF 78-18, from a […] fetus; HDF 1-85, from newborn foreskin; HDF 79-81, from a person; and HDF 72-46, from a person. The four fibroblast lines were isolated using standard methods (Meth. Cell Biol. 219:255-276, 1980, hereby incorporated by reference) and were maintained in culture for 22 to 31 population doublings using Dulbecco-Vogt Modified Eagles Medium (D MEM) supplemented with 10% fetal bovine serum (FBS). NIH 3T3 immortalized mouse fibroblasts served as a control.
(§2) Cells were seeded at 10^4 per 3.5-cm dish in D MEM plus 10% FBS and drug, except for Mtx selection where 10% dialyzed FBS was used. Drug-resistant cells were scored after 10 days.

[1] = test system: human diploid fibroblast cell lines; experiment: Drug killing, summary over HDF lines; type: cell-based
Protocol: as §1, §2

HDF 1-85 = experiment: Drug concentration needed for complete cell killing; type: cell-based, human; conditions: Newborn HDF 1-85, scored after 10 days
Protocol: as §1, §2

HDF 79-81 = experiment: as above; type: cell-based, human; conditions: Adult HDF 79-81, scored after 10 days
Protocol: as §1, §2

HDF 72-46 = experiment: as above; type: cell-based, human; conditions: Adult HDF 72-46, scored after 10 days
Protocol: as §1, §2

HDF 78-18 = experiment: as above; type: cell-based, human; conditions: for Drug Concentrations Needed For Complete Cell Killing: Fetal HDF 78-18, scored after 10 days
Protocol: as §1, §2

SF03 cells = experiment: Adenosine killing of ADA-deficient fibroblasts; type: cell-based, human
Text: (§3) Referring to FIG. 5, the ADA vector LNSAL was made by inserting an ADA cDNA (Valerio, D., et al., Gene 31:147-153, 1984) linked to a SV40 early region enhancer/promoter downstream of the neo gene in N2. Helper-free virus was made by introduction of LNSAL into PA317 amphotropic retrovirus-packaging cells (ATCC No. CRL 9078), as described in Mol. Cell. Biol. 6:2895-2902, 1986, hereby incorporated by reference. […] Using either G418 or adenosine, the expression of either neo and the ADA gene was assayed in LNSAL-infected cells.

[2] = test system: normal human diploid fibroblasts; experiment: Adenosine effect on normal fibroblasts; type: cell-based; conditions: 2 mM
Text: as §3

CN(Cc1cnc2nc(N)nc(N)c2n1)c1ccc(C(=O)N[C@@H](CCC(=O)O)C(=O)O)cc1 [Mtx, Methotrexate]
Drug Concentrations Needed For Complete Cell Killing (NIH 3T3; 10% dialyzed FBS): 0.1 µM | concentration that efficiently killed the cells (NIH 3T3; NIH 3T3 cells): 10^-7 M | colony formation at the highest concentration of Mtx used ([1]; all HDF lines with the exception of HDF 78-18): formed colonies | concentration to which the cell lines were resistant to killing ([1]; human diploid fibroblast cell lines): > 10^-5 M | concentration to which the cell lines were resistant to killing ([1]; most human diploid fibroblast cell lines): more than 10^-3 M | Drug Concentrations Needed For Complete Cell Killing (HDF 1-85; 10% dialyzed FBS): > 1000 µM | Drug Concentrations Needed For Complete Cell Killing (HDF 79-81; 10% dialyzed FBS): > 10 µM | Drug Concentrations Needed For Complete Cell Killing (HDF 72-46; 10% dialyzed FBS): > 1000 µM | Drug Concentrations Needed For Complete Cell Killing (HDF 78-18; 10% dialyzed FBS): > 1000 µM | colony formation at the highest concentration of Mtx used (HDF 78-18; HDF 78-18, viable cells remained after 15 days of selection): did not form colonies

CNC1C(O)C(OC2C(N)CC(N)C(OC3OC(C(C)O)C(O)C(O)C3N)C2O)OCC1(C)O (centres unmarked) [Vector G418]
Drug Concentrations Needed For Complete Cell Killing (NIH 3T3; weight of dry powder): 1000 µg/mL | Drug Concentrations Needed For Complete Cell Killing (HDF 1-85; weight of dry powder): 500 µg/mL | Drug Concentrations Needed For Complete Cell Killing (HDF 79-81; weight of dry powder): 1000 µg/mL | Drug Concentrations Needed For Complete Cell Killing (HDF 72-46; weight of dry powder): 500 µg/mL | Drug Concentrations Needed For Complete Cell Killing (HDF 78-18; weight of dry powder): 500 µg/mL

Nc1ncnc2c1ncn2[C@@H]1O[C@H](CO)[C@@H](O)[C@H]1O [adenosine]
concentration that kills the cells (SF03 cells): 2 mM | effect on the cells [2]: no effect
